Assay: gradient 5% acetonitrile 3 min, to 50% in 2 min, to 85% in 15 min, held 3 min, 100 µL/min
Details: column: Zorbax Extend-C18 2.1 x 50 mm; eluents: water / acetonitrile, 0.1% formic acid
Outline: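 The mobile phases were water and acetonitrile, each with 0.1% formic acid, pumped at 100 μL/min through a Zorbax Extend-C18 column (2.1 × 50 mm, 1.8 μm). Pure standards were injected as mixtures of ~100 molecules and detected by a quadrupole time-of-flight mass spectrometer in positive and negative ionization mode. Retention time came from computationally picked adduct peaks, each inspected by hand.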

SMILES | RP-LC retention time [s]
O=C(c1n[nH]c2c1CCCC2)N1CCn2c(nnc2-c2ccccc2)C1 | 645
CCCS(=O)(=O)N1CCc2ccc(NC(=O)c3ccno3)cc2C1 | 716
CCOc1ccccc1C(=O)Nc1cccn2c(C3CCC3)nnc12 | 953
COc1ccccc1CC(=O)N1CCN(c2ccc(-c3ccccn3)nn2)CC1 | 598
CC(C)(CO)NCc1ccc(-c2ccc(Cl)cc2Cl)o1 | 685
O=C(Cn1nc2c3sc(N4CCCCC4)nc3ncn2c1=O)Nc1ccc(Br)cc1 | 848
CCN1C(=O)COc2ccc(-c3noc(-c4cccc(OC)c4OC)n3)cc21 | 1060
COC(=O)CSc1ccc(NC(C)=O)nn1 | 577
Cc1cc(C)cc(Nc2c(-c3ccc4c(c3)OCO4)nc3cnccn23)c1 | 984
Cc1ccc2c(c1)N(S(C)(=O)=O)CCC(C(=O)Nc1ccc(C(F)(F)F)cc1)O2 (configuration not stated) | 1090
Cc1noc(C2CN(C(=O)NCc3cccc(F)c3)CC23CCOCC3)n1 (configuration not stated) | 706
Cn1nccc1C(=O)N1CCCC1c1nc(-c2ccc(F)cc2F)no1 (configuration not stated) | 794
O=C(c1ccc2c(c1)ncn2CCN1CCCC1)N1CCN(c2ccccc2F)CC1 | 596
Cn1ncc2c(N3CCSCC3)nc(C(=O)Nc3cccc(OC(F)(F)F)c3)nc21 | 1010
Cc1ccc(CNC(=O)C2CCN(c3cnc(N4CCCC4)nc3)CC2)cc1 | 680
O=C(Nc1nnc(-c2ccco2)o1)C1c2ccccc2Oc2ccccc21 | 783
COc1cc(OC)c(NC(=O)NC2CCN(c3ccc(F)c(C)c3)C2=O)cc1Cl (configuration not stated) | 888
CN(C)c1cccc(C(=O)NCc2[nH]nc3ccccc23)c1 | 580
O=C(NCc1cccs1)C1CCN(c2cnc(N3CCSCC3)nc2)CC1 | 751
Cc1ccsc1CCNC(=O)C1CCN(S(=O)(=O)c2ccc3c(c2)CCCC(=O)N3)CC1 | 760
CC(C)c1nnc(-c2cccnc2N2CCN(C(=O)CC3CCCC3)CC2)o1 | 872
COc1ccc(-c2noc(CN3C(=O)COc4ccc(Cl)cc43)n2)cc1OC | 971
Cc1ccc(NC(=O)CSc2ccc(N3CCCC(C(=O)NC4CC4)C3)nn2)c(C)c1 (configuration not stated) | 625

SMILES | RP-LC retention time [s]
Cc1ccc2c(Nc3cccc(C(C)C)c3)c(C(=O)N3CCCC(C)C3)cnc2n1 (configuration not stated) | 722
O=C(CN1C(=O)C2CCCCN2c2ccc(C(=O)N3CCCCC3)cc21)NC1CCCC1 (configuration not stated) | 828
CCc1nnc(-c2ccc3ccn(CC(=O)Nc4ccc(Cl)cn4)c3c2)o1 | 843
Cc1ccc(-c2ccc3nn(CC(=O)Nc4ccc(C)cc4Br)c(=O)n3n2)cc1 | 960
Cc1ccc(CN2C[C@@H]3C(=O)N(CCCN4CCCC4=O)C(=O)[C@@H]3C2)cc1 | 589
O=C(Nc1ccccc1)C1CCN(C(=O)c2ncn3c2COC(c2ccccc2)C3)CC1 (configuration not stated) | 752
Cc1cccc(C)c1NC(=O)C1CCN(S(=O)(=O)c2ccc3c(c2)NC(=O)CO3)CC1 | 813
CC1CCCCN1CCNC(=O)CCCn1c(=O)c2cccn2c2ccc(Br)cc21 (configuration not stated) | 673
O=C(NCc1cccs1)N1CCN(c2nc3c(F)cc(F)cc3s2)CC1 | 849
O=C(Cn1cccc(S(=O)(=O)N2CCOCC2)c1=O)NCc1ccc(Cl)cc1 | 666
Cc1nc2cc(N3CCC(C(=O)O)CC3)cnc2nc1C | 611
O=C(NCCc1csc(-c2ccc(F)cc2)n1)c1ccc2c(c1)OCO2 | 908
Cc1nn(-c2ccccc2)c2c1C(c1ccc([N+](=O)[O-])cc1)C(C#N)=C(N)O2 (configuration not stated) | 760
CCc1noc(NC(C)=O)c1-c1ccc(OC)c(S(=O)(=O)N2CCC(C)CC2)c1 | 864
O=C1CCCc2nc(N3CCN(c4ccccc4F)CC3)ncc21 | 1060
Cc1ccc(-c2nc3c(C)cccn3c2Nc2ccc3c(c2)OCCO3)cc1 | 721
CCn1c(C2CC(=O)N(Cc3ccccc3)C2)nc2ccccc21 (configuration not stated) | 650
Cc1cc(C)c(S(=O)(=O)N2CCCC2c2nc(-c3ccc(Cl)cc3)no2)cc1C (configuration not stated) | 1340
CC(=O)N1CCCC1c1nc(C2CN(C(=O)CCn3cc(C)cn3)C2)no1 (configuration not stated) | 604
Cc1ccccc1NC(=O)N1CCC2(CC1)NC(=O)c1ccc(F)cc1N2C | 747
CCS(=O)(=O)c1ccc2c(c1)N(Cc1nc(-c3ccccc3Cl)no1)C(=O)CO2 | 895
NC(=O)C1CCN(C(=O)c2cc3cccnc3n(Cc3ccccc3F)c2=O)CC1 | 666
CCCc1noc(CN2N=C(C(=O)N3CCC(C)CC3)S(=O)(=O)c3ccc(C)cc32)n1 | 1010

SMILES | RP-LC retention time [s]
CCOC(=O)c1c(C)oc2nc(C)nc(Nc3ccc(C)c(F)c3)c12 | 1360
CCCCN1CCC(F)(c2nc(-c3ccccc3)no2)CC1 | 691
CCN1C(=O)c2ccccc2Oc2ccc(C(=O)NCCc3ccccc3)cc21 | 845
Cc1ccc(C(C)C)c(OCC(=O)Nc2ccc(C(=O)O)cc2)c1 | 929
CCc1ccc(NC(=O)Nc2cccc(-c3nnc4n3CCCC4)c2)cc1 | 736
CN(C)CCCCN1CCc2c(n(C)c3ccccc23)C1=O | 650
O=C(CSc1ccc(N2CCCC(C(=O)NC3CC3)C2)nn1)Nc1ccc(Cl)cc1 (configuration not stated) | 682
COc1ccc(-c2csc(NC(=O)Cn3c(=O)sc4ccccc43)n2)cc1 | 951
CCCN(Cc1ccc(OC)c(OC)c1)Cc1cc(=O)n2cccc(C)c2n1 | 620
COc1ccc(C2C(C(=O)Nc3cc(OC)ccc3OC)c3ccccc3C(=O)N2C)cc1 (configuration not stated) | 929
CCN1CCN(C(=O)C2Cc3cc(S(=O)(=O)N4CCOCC4)ccc3N2C(C)=O)CC1 (configuration not stated) | 578
Cc1ccc(OCC(=O)Nc2nnc(C3CC(=O)N(c4ccccc4)C3)o2)cc1 (configuration not stated) | 765
Cc1cc(S(=O)(=O)N2CC(F)(F)C[C@H]2CN2CCc3ccccc3C2)ccc1F | 790
CCc1ccc(S(=O)(=O)N2CCC(N3CCN(Cc4ccccc4)C(=O)C3=O)CC2)cc1 | 859
O=C(CN1CCN(C(=O)CCc2ccccc2)CC1)c1cccs1 | 550
O=C1/C(=C\c2ccc(O)c(O)c2)Oc2cc(O)ccc21 | 710
O=S(=O)(NC1CCCCCC1)c1ccc(-c2nnc(C3CCCC3)o2)o1 | 1080
CCCNCc1ccc(-c2ccccc2)o1 | 641
Cc1cccc(NC(=O)C2(C)CCCCC(=O)N2)c1 (configuration not stated) | 695
CCC(C(=O)Nc1cccc(C)c1)n1cnc2nc3c(cc2c1=O)CCCC3 (configuration not stated) | 834
COc1ccc(CCS(=O)(=O)NCC2(c3ccc(F)cc3)CC2)cc1 | 950

Reference: the METLIN SMRT retention time set (Domingo-Almenara et al. 2019)
